Results from PubChem BioAssay (NCI).
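1) Cells in 96-well plates. 2) Compound, 48 h, 5 concentrations. 3) Linear interpolation between surrounding doses. 4) Unreached endpoint = highest concentration. Here, GI50 denotes the concentration required for 50% inhibition of growth. TGI is the concentration that stops growth completely.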

What was measured:
Test in all cases: DTP human tumour cell line panel, 48 h
DU-145 prostate = system: DU-145 prostate
MDA-MB-435 = system: MDA-MB-435
SF-539 CNS = system: SF-539 CNS
DLD-1 colon = system: DLD-1 colon
DMS 114 small cell lung = system: DMS 114 small cell lung
DMS 273 small cell lung = system: DMS 273 small cell lung
HL-60(TB) leukemia = system: HL-60(TB) leukemia
KM20L2 colon = system: KM20L2 colon
LXFL 529 NSCLC = system: LXFL 529 NSCLC
SNB-78 CNS = system: SNB-78 CNS
786-0 renal = system: 786-0 renal
M19-MEL melanoma = system: M19-MEL melanoma
RPMI-8226 leukemia = system: RPMI-8226 leukemia
XF 498 CNS = system: XF 498 CNS
HS 578T breast = system: HS 578T breast
MDA-N = system: MDA-N
RXF-631 renal = system: RXF-631 renal

SMILES | GI50 (DU-145 prostate) | TGI (DU-145 prostate) | GI50 (MDA-MB-435) | TGI (MDA-MB-435) | GI50 (SF-539 CNS) | TGI (SF-539 CNS) | TGI (DLD-1 colon) | TGI (DMS 114 small cell lung) | TGI (DMS 273 small cell lung) | TGI (HL-60(TB) leukemia) | TGI (KM20L2 colon) | TGI (LXFL 529 NSCLC) | TGI (SNB-78 CNS) | TGI (786-0 renal) | TGI (M19-MEL melanoma) | TGI (RPMI-8226 leukemia) | TGI (XF 498 CNS) | TGI (HS 578T breast) | TGI (MDA-N) | TGI (RXF-631 renal)
Cc1ccc(C2CC(c3cccc(Nc4ccncc4)c3)=NN2c2ccccc2)cc1 (stereo unspecified) | 1.89 µM | 3.6 µM | 1.64 µM | 3.06 µM | 1.74 µM | 3.16 µM | – | – | – | – | – | – | – | – | – | – | – | – | – | –
O=c1nc2sc3ccc4ccccc4c3n2[nH]c1=O | – | – | – | – | – | > 100 µM | > 100 µM | > 100 µM | > 100 µM | > 100 µM | 99 µM | > 100 µM | > 100 µM | – | – | – | – | – | – | –
COc1cc2c(c(OC(C)=O)c1OC(C)=O)-c1ccc(SC)c(=O)cc1C(NC(C)=O)CC2 (stereo unspecified) | – | – | – | – | – | 1.64 µM | > 100 µM | 6.11 µM | > 100 µM | 1.34 µM | 10.4 µM | > 82.3 µM | > 100 µM | > 100 µM | > 73.5 µM | > 100 µM | 42.4 µM | – | – | –
CCOC(=O)NC(Nc1ccc(Cl)cn1)(C(F)(F)F)C(F)(F)F | – | > 100 µM | – | > 100 µM | – | > 100 µM | – | – | – | > 100 µM | – | – | – | – | – | > 100 µM | – | > 100 µM | > 100 µM | –
CC1=CC(C)(C)Nc2ccc(CSc3ccccc3)cc21 | – | 71.5 µM | – | 63.4 µM | – | > 100 µM | – | – | – | – | – | – | – | 72.1 µM | – | 31.2 µM | – | > 100 µM | 69.9 µM | –
N#CCCN(CCC#N)c1ccc(/C=C2\N=C(c3cc([N+](=O)[O-])ccc3Cl)N(NC(=O)CC(=O)Nc3ccccc3Cl)C2=O)cc1 | – | – | – | – | – | > 100 µM | > 100 µM | > 100 µM | > 100 µM | – | 34.5 µM | > 100 µM | > 100 µM | – | > 100 µM | > 100 µM | > 100 µM | – | – | –
CC(C)CN(CC#N)CC(C)C | – | > 100 µM | – | > 100 µM | – | – | – | – | – | > 100 µM | – | – | – | > 100 µM | – | > 100 µM | – | > 100 µM | > 100 µM | –
CCCCCCCCCCCCCCCC(=O)OC1C(O)C(CO)OC(OC)C1NC(=O)N(CCCl)N=O (stereo unspecified) | – | – | – | – | – | 6.16 µM | 31.5 µM | 28 µM | 29.4 µM | – | 32.4 µM | 25.1 µM | 40.2 µM | – | 32.3 µM | > 100 µM | 30.8 µM | – | – | 32 µM
[O-][n+]1c(-c2ccccc2)c2nc3ccccc3nc2c2ccccc21 | – | – | – | – | – | > 100 µM | > 100 µM | > 100 µM | > 100 µM | – | > 100 µM | 93.9 µM | 92.4 µM | > 100 µM | > 100 µM | > 100 µM | > 100 µM | – | – | > 100 µM
O=[As](O)(O)c1ccc2nc3cc([As](=O)(O)O)ccc3nc2c1 | – | > 100 µM | – | > 100 µM | – | – | – | – | – | – | – | – | – | > 100 µM | – | – | – | > 100 µM | > 100 µM | –
C[C@]12CC[C@@H]3c4ccc(OCCN5CCCC5)cc4CC[C@H]3[C@@H]1CCC2=O | – | > 100 µM | – | > 100 µM | – | – | – | – | – | > 100 µM | – | – | – | – | – | > 100 µM | – | – | 64.3 µM | –
CC(=O)N/C(=C\c1ccc(/C=C(\NC(C)=O)C2=NC3C(=O)c4ccccc4C(=O)C3N2)cc1)C1=NC2C(=O)c3ccccc3C(=O)C2N1 (stereo unspecified) | – | – | – | – | – | > 100 µM | > 100 µM | > 100 µM | > 100 µM | > 100 µM | > 100 µM | > 100 µM | > 100 µM | – | > 100 µM | > 100 µM | > 100 µM | – | – | > 100 µM
CCN(CC)CCNc1ccc2nnn3c4ccccc4c(=O)c1c23 | – | – | – | – | – | 19.6 µM | 42.2 µM | 24.2 µM | 14.3 µM | 8.59 µM | 15.1 µM | 21.8 µM | – | 20.7 µM | 17.2 µM | > 24.2 µM | 13.6 µM | – | – | 13.7 µM
C[N+](C)([O-])Cc1cc(-c2ccccc2)ccc1O | – | > 100 µM | – | > 100 µM | – | – | – | – | – | – | – | – | – | > 100 µM | – | – | – | > 100 µM | – | –
CCCOC1OC(CS(=O)(=O)O)C(O)C(O)C1O (stereo unspecified) | – | > 100 µM | – | > 100 µM | – | – | – | – | – | > 100 µM | – | – | – | – | – | > 100 µM | – | > 100 µM | > 100 µM | –
NC(N)=NC(N)=Nc1ccccc1 (tested in a mixture with another compound) | – | > 100 µM | – | > 100 µM | – | > 100 µM | – | – | – | > 100 µM | – | – | – | > 100 µM | – | – | – | > 100 µM | > 100 µM | –
